Entries after “also recorded” stand apart in the source; their conditions may differ.
Legend:
[1] = tested on: HN137P PDX; experiment: In vivo treatment of HN137P PDX-bearing mice; conditions: male mice n=5, 2 mg kg^−1 i.p. once every 2 days
From the text: (§1) Generation and passaging of PDXs. Tumour samples were obtained from patients post-surgery after obtaining informed patient consent in accordance to SingHealth Centralized Institutional Review Board (CIRB: 2014/2093/B). Tumours were minced into 1 mm^3 fragments and suspended in a mixture of 5% Matrigel (Corning, cat. no. 354234) in DMEM/F12 (Thermo Fisher, cat. no. 10565-018). The tumour fragment mixtures were then implanted subcutaneously into the left and right flanks of 5-7 weeks old NSG (NOD.Cg-Prkdcscid II2rgtm1Wjl/SzJ) (Jackson Laboratory, stock no. 005557) mice, using 18-gauge needles. Tumours were excised and passaged when they reached 1.5 cm^3. […]
(§2) Gefitinib (Iressa) was prepared by dissolving a 250 mg clinical grade tablet (AstraZeneca) in sterile water containing 0.05% Tween-80 (Sigma-Aldrich, cat. no. P4780) to a concentration of 10 mg/mL and administered at a dosage of 25 mg/kg daily via oral gavage. […] The length and width of tumours were measured by caliper once every 2 days. […] The weight of tumour was not directly measured, but were estimated using volume where the density of tissue was assumed to be 1 g/cm^3. The ratio of the change in treated tumour volume (ΔT) to the average change in control tumour volume (ΔT/Average ΔC) at each time point was calculated as follows: […]

[2] = tested on: HN137M PDX; experiment: In vivo treatment of HN137M PDX-bearing mice; conditions: male mice n=5, 2 mg kg^−1 i.p. once every 2 days
From the text: as §1, §2

[3] = tested on: patient-derived tumour spheroids (head and neck cancer patient); experiment: Label-free image-based drug response (LaFOS) of 3D tumour spheroids over time; format: cell-based, human; conditions: for response of tumour spheroids over time (LaFOS time-course): 24, 48 and 72 hours after treatment, 1 μM
Description: The examples used in this disclosure were generated by seeding 5000 cells into each well of Corning® 384 Well Black Clear Round Bottom Ultra-Low Attachment Spheroid Microplates. The assay plates were incubated at 37° C., 5% CO2 over 3 days to allow formation of the tumour spheroids. At 96 hours, the spheroids were imaged (labelled as “untreated” in the study) using a confocal microscope at 20× (Perkin Elmer Opera Phenix High Content Screening system) and then treated at 1 μM of the compounds (in DMSO). In total, 1,231 spheroids were generated and treated in duplicates at 96 hours with small molecule and kinase inhibitors from the Selleck Anti-cancer library and Selleck Kinase Inhibitor chemical library. The drug treated spheroids were imaged subsequently at 24, 48 and 72 hours after treatment.
Bright-field images of the 1,231 spheroids acquired at different time-points and z-planes were computationally segmented into proliferating (red), quiescent (green) and necrotic (yellow) zones through a method referred to as “Spheroid Peeling” (FIG. 5). Other imaging methods can also be used—Phase contrast imaging, electron microscopy, wide-field, dark-field, super-resolution microscopy, and many more.
Briefly, “Spheroid Peeling” involves repeatedly segmenting the spheroid image from the periphery to the core zone. The entire spheroid was first segmented as an object (hereby referred to as spheroid object) and cropped from the original well image (FIG. 6). An “inner core” was then identified from the spheroid object, hereby referred to as quiescent object. The proliferating zone was obtained by masking the quiescent object from the spheroid object. Similarly, the necrotic zone was identified as the “inner core” of the quiescent object, and the quiescent zone was obtained by masking the necrotic zone from the quiescent object. A number of image features were quantified from each of the proliferating, quiescent and necrotic zones, resulting in a total of 504 image descriptors for each spheroid. The “spheroid peeling” algorithm can be written in a number of languages or image analysis tool, such as Cell Profiler, MATLAB or ImageJ.
FIG. 19 is a flow diagram 700 showing a machine learning based training method in accordance with the present disclosure for generating a computational model (or learning model) of drug response in spheroids. Two sets of spheroids were generated for imaging and for viability measurement, respectively. The two sets of spheroids were treated with the same drugs. For feasibility testing, a training set of 1,231 spheroids 1902 was generated. At 72 hours after drug treatment, acquisition 1904 of bright-field images 1906 was obtained. As data preprocessing 708, “Spheroid Peeling” 1910 was applied to obtain, through image feature quantification 1912, 504 image descriptors from the Proliferating, Quiescent and Necrotic zones of each tumour spheroid, resulting in over ˜600K image descriptors 1916 in total.
The learning process generated a computational model 1922 that can be perceived as a complex multi-feature numerical quantification of the drug response of the spheroids. Generating the computational model includes one or more of training the computational model or determining parameters of the computational model. […]

[4] = tested on: HN120M PDX; experiment: In vivo treatment of HN120M PDX-bearing mice; conditions: mice n=6, 5 mg kg^−1 i.p. once every 2 days
From the text: as §1, §2

[5] = tested on: spheroids derived from a head and neck cancer patient; experiment: Micrograph morphology of drug-treated patient-derived spheroids; format: cell-based, human; conditions: spheroids approximately 500 microns
From the text: All three patient-derived spheroids are of similar sizes of approximately 500 microns.
On the other hand, morphological-based methods primarily use the size/volume or shape of the spheroids.

**Q.** What does the source list for `COCCn1c2c([n+](Cc3cnccn3)c1C)C(=O)c1ccccc1C2=O` [YM155]?
**A.** anti-tumour effect in PDX (tumour volume vs vehicle) [1]: did not display significant sensitivity; anti-tumour effect in PDX (tumour volume vs vehicle) [2]: significant anti-tumour effect

**Q.** With `Cn1c(=O)n(-c2ccc(C(C)(C)C#N)cc2)c2c3cc(-c4cnc5ccccc5c4)ccc3ncc21` [BEZ235] as the compound, how does the “response of tumour spheroids over time (LaFOS time-course)” value (“response of tumour spheroids over time” below) [3] read?
**A.** The value was “remain unchanged; also recorded: unresponsive”.

**Q.** For `COc1cc(N2CCC(N3CCN(C)CC3)CC2)ccc1Nc1ncc(Cl)c(Nc2ccccc2S(=O)(=O)C(C)C)n1` [NVP-TAE684], which “response of tumour spheroids over time” value [3] is on record?
**A.** Its value is “increasing efficacy”.

**Q.** What about the “inhibition rate (4-dimensional drug response of tumor spheroids)” value ([3]; over the course of 72 hours, duplicate spheroids (R1 and R2), treated at 1 μM) of the same compound?
**A.** The value was 60%.

**Q.** Which “response of tumour spheroids over time” value [3] does the source give for `COc1ncc(-c2ccc3nccc(-c4ccnnc4)c3c2)cc1NS(=O)(=O)c1ccc(F)cc1F` [GSK2126458] here?
**A.** The value was “increasing efficacy”.

**Q.** And the inhibition at 1 µM ([3]; Homo sapiens, over the course of 72 hours, duplicate spheroids (R1 and R2), treated at 1 μM, read-out: inhibition rate (4-dimensional drug response of tumor spheroids))?
**A.** Its inhibition at 1 µM is 80%.

**Q.** Which “efficacy in in vivo model (PDX)” value [4] does the source give for `CN1CC[C@H](c2c(O)cc(O)c3c(=O)cc(-c4ccccc4Cl)oc23)[C@H](O)C1` [Flavopiridol] here?
**A.** The value was “already validated in in vivo models”.

**Q.** What does the source list for `N.N.[Cl][Pt][Cl]` [Cisplatin]?
**A.** morphological structure of tumour spheroid ([5]; high concentration): enlarged core zone; morphological structure of tumour spheroid ([5]; low concentration): resembled that of the untreated spheroid

From patent US20200218874A1, “A LABEL-FREE METHOD AND SYSTEM FOR MEASURING DRUG RESPONSE KINETICS OF THREE-DIMENSIONAL CELLULAR STRUCTURES” (AGENCY FOR SCIENCE, TECHNOLOGY AND RESEARCH, priority 2017, published 2020)
